Columns and labels:
IGR-1 cells = experiment: Assay 1 cell proliferation measurement, IGR-1; assay type: cell-based; details: Homo sapiens, Melanoma, read-out: Anti-proliferation IC50 [nM] IGR-1
HMCB cells = experiment: Assay 1 cell proliferation measurement, HMCB; assay type: cell-based; details: Homo sapiens, Melanoma, read-out: Anti-proliferation IC50 [nM] HMCB
human full length PDE3A = human full length PDE3A (Homo sapiens (Human), UniProt Q14432); experiment: Assay 4 PDE3A enzyme inhibition (3H-cAMP SPA); assay type: biochemical; details: Sf9 cell extract
Method in brief: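 Enzyme: Sf9 extract with overexpressed full-length PDE3A; substrate [8-3H]cAMP, 0.025 μCi/well; 60 min, room temperature, Tris/HCl pH 7.5 buffer with MgCl2, EDTA, BSA.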

DBTRG-05-MG cells = experiment: Assay 1 cell proliferation measurement, DBTRG-05-MG; assay type: cell-based; details: Homo sapiens, Glioblastoma, read-out: Anti-proliferation IC50 [nM] DBTRG-05-MG
C32 cells = experiment: Assay 1 cell proliferation measurement, C32; assay type: cell-based; details: Homo sapiens, Melanoma, read-out: Anti-proliferation IC50 [nM] C32
NCIH1563 cells = experiment: Assay 2 cell proliferation measurement, NCIH1563; assay type: cell-based; details: Homo sapiens, NCI-H1563, Lung adenocarcinoma, read-out: Anti-proliferation IC50 [nM] NCIH1563
Experimental: (§1) Cell Proliferation Measurement
(§2) The antiproliferative activity of the compounds of the general formula (I) was examined in vitro in human cancer cells. For this purpose, 500 cells, including HeLa cells, A2058 cells, DU145 cells, HMCB cells, IGR37 cells, NCIH1734 cells, OSRC2 cells, or 750 cells, including CAL51 cells, COL0741 cells, DBTRG05MG cells, DKMG cells, G292CLONEA141B1 cells, GB1 cells, HEL cells, HEL9217 cells, JHUEM1 cells, L3.3 cells, LI7 cells, TE4 cells, or 1000 cells, including 8505C cells, HUT78 cells, NCIH1563 cells, NCIH2122 cells, NCIH2172 cells, RVH421 cells, SKMEL3 cells, or 1500 cells, including C32 cells, HS578T cells, JHOM1 cells, NCIH196 cells, OVKATE cells, were plated in 384-well plates with appropriate growth medium and incubated at 37° C. overnight. […] After 72 h, the cells were treated with 20 μl/well of 50% CTG solution in PBS (Promega Cell Titer Glo (catalogue #G755B and G756B)) and incubated at room temperature for 10 min, and luminescence was measured by means of a VICTOR V (Perkin Elmer), in order to determine cell viability at the end of treatment. The percentage effect on cell growth and the IC50 derived therefrom were determined for each test substance using the values from untreated wells (=percent viability). The IC50 values were calculated using a 4-parameter fit.

TE4 cells = experiment: Assay 2 cell proliferation measurement, TE4; assay type: cell-based; details: Homo sapiens, Oesophagus squamous cell carcinoma, read-out: Anti-proliferation IC50 [nM] TE4
Experimental: as §1, §2

[1] = test system: PA-1 xenograft (Ovarian teratocarcinoma); experiment: Assay 3 in vivo xenotransplantation model, PA-1; details: PA-1 ovarian teratocarcinoma xenograft, mice
Text: (§3) In Vivo Xenotransplantation Models
(§4) The anti-tumor activities of Compounds of examples 135 and 146 were examined in murine xenotransplantation models of human cancer. For this purpose, mice were implanted subcutaneously with tumor cells. At a mean tumor size of 20-40 mm^2 animals were randomized into treatment and control groups (at least n=10 animals/group) and treatment started with vehicle only or respective Compound (formulation: 90% PEG400/10% Ethanol; application route: per os (“p.o.”), orally). The oral application volume was 10 ml/kg. In the case of twice daily treatments, the time interval between two applications per day was 6-7 h. The tumor size and the body weight were determined at least weekly. The tumor area was detected by means of an electronic caliper [length (mm)×width (mm)]. The experiment was ended when the study reached the pre-determined ethical endpoint based on German and European animal welfare regulations. In vivo anti-tumor efficacy is presented as T/C ratio at study end (Treatment/Control; mean tumor weight of treatment group/mean tumor weight of control group) in Table 8. A compound having a T/C below 0.5 is defined as active (i.e., effective). Statistical analysis was assessed using SigmaStat software. A one-way analysis of variance was performed and differences to the control were compared by a pair-wise comparison procedure (Dunn's method).

[2] = test system: xenograft models of human tumors; experiment: Assay 3 in vivo xenotransplantation models of human cancer (overall statement); details: monotherapy treatment, p.o., mice
Text: as §3, §4

JHOM1 cells = experiment: Assay 2 cell proliferation measurement, JHOM1; assay type: cell-based; details: Homo sapiens, Ovary adenocarcinoma, read-out: Anti-proliferation IC50 [nM] JHOM1
Experimental: as §1, §2

[3] = test system: HEL92.1.7 xenograft (AML); experiment: Assay 3 in vivo xenotransplantation model, HEL92.1.7; details: HEL92.1.7 AML xenograft, mice, 40 mg/kg 2QD p.o.; * P < 0.05 vs control
Text: as §3, §4

[4] = test system: HeLa xenograft (Cervical cancer); experiment: Assay 3 in vivo xenotransplantation model, HeLa; details: mice, 5 mg/kg 2QD p.o., * P < 0.05 vs control
Text: as §3, §4

[5] = test system: A2058 xenograft (Melanoma); experiment: Assay 3 in vivo xenotransplantation model, A2058; details: mice, 10 mg/kg 2QD p.o., * P < 0.05 vs control
Text: as §3, §4

Chain of human full length PDE3A (Q14432 whole entry): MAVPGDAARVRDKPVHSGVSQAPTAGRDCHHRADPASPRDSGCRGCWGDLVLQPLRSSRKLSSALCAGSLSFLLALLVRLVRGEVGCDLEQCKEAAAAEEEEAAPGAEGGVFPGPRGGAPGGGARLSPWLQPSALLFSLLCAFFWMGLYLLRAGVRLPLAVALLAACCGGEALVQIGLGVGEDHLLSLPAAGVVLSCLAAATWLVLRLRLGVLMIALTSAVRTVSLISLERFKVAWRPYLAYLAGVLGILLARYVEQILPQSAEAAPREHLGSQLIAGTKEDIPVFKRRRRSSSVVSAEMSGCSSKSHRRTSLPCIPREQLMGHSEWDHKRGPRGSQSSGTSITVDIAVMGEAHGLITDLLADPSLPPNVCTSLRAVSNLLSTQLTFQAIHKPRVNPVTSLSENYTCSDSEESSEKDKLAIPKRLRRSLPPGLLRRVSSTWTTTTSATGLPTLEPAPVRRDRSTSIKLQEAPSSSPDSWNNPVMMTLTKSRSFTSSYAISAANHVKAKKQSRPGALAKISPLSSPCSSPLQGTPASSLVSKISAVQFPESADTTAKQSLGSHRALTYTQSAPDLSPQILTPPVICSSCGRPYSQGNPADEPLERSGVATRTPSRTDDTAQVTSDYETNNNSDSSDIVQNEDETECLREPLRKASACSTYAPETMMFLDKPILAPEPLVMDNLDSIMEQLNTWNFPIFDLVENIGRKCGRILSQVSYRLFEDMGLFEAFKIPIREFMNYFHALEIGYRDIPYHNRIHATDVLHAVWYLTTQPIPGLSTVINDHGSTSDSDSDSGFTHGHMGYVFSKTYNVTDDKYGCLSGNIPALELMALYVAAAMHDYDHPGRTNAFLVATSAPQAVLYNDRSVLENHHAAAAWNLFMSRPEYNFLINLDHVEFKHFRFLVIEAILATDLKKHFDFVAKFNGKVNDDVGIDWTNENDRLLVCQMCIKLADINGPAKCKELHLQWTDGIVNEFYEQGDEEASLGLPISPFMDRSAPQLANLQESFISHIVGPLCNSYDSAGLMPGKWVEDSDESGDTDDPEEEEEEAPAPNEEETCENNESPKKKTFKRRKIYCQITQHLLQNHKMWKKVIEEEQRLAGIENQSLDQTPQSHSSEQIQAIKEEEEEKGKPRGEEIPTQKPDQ

SMILES: O=C1NN=C(c2ccc(-c3ccc(F)cc3)c(C(F)(F)F)c2)CO1 [Example 3, 5-[4′-Fluoro-2-(trifluoromethyl)biphenyl-4-yl]-3,6-dihydro-2H-1,3,4-oxadiazin-2-one]
- IC50 (IGR-1 cells): 99 nM
- IC50 (HMCB cells): 26 nM
- IC50 (human full length PDE3A): 285 nM

SMILES: O=C1NN=C(c2ccc(-c3ccc(Cl)cc3)c(C(F)(F)F)c2)CO1 [Example 31, 5-[4′-Chloro-2-(trifluoromethyl)biphenyl-4-yl]-3,6-dihydro-2H-1,3,4-oxadiazin-2-one]
- IC50 (DBTRG-05-MG cells): 56 nM
- IC50 (human full length PDE3A): 310 nM

SMILES: C[C@@H]1OC(=O)NN=C1c1ccc(-c2ccc(F)cc2)c(C(F)(F)F)c1 [Example 135, (6S)-5-[4′-Fluoro-2-(trifluoromethyl)biphenyl-4-yl]-6-methyl-3,6-dihydro-2H-1,3,4-oxadiazin-2-one]
- IC50 (IGR-1 cells): > 100 nM
- IC50 (HMCB cells): 13 nM
- IC50 (C32 cells): 15 nM
- IC50 (NCIH1563 cells): 18 nM
- IC50 (TE4 cells): 15 nM
- T/C (mean final tumor weight treatment / control) ([1]; 5 mg/kg 2QD p.o.): 0.63
- IC50 (human full length PDE3A): 87 nM
- anti-tumor efficacy in xenograft models of human tumors [2]: potent anti-tumor efficacy

SMILES: O=C1NN=C(c2ccc(-c3cnn(C(F)F)c3)c(C(F)(F)F)c2)CO1 [Example 146, 5-{4-[1-(Difluoromethyl)-1H-pyrazol-4-yl]-3-(trifluoromethyl)phenyl}-3,6-dihydro-2H-1,3,4-oxadiazin-2-one]
- IC50 (DBTRG-05-MG cells): 14 nM
- IC50 (JHOM1 cells): 8 nM
- T/C (mean final tumor weight treatment / control) [3]: 0.08*
- T/C (mean final tumor weight treatment / control) [4]: 0.08*
- T/C (mean final tumor weight treatment / control) [5]: 0.23*
- T/C (mean final tumor weight treatment / control) ([1]; 20 mg/kg 2QD p.o., * P < 0.05 vs control): 0.49*
- IC50 (human full length PDE3A): 40 nM
- anti-tumor efficacy in xenograft models of human tumors [2]: potent anti-tumor efficacy

SMILES: C[C@@H]1OC(=O)NN=C1c1ccc(-n2ccc(C(F)(F)F)n2)c(C(F)(F)F)c1 [Example 265, (6S)-6-Methyl-5-{3-(trifluoromethyl)-4-[3-(trifluoromethyl)-1H-pyrazol-1-yl]phenyl}-3,6-dihydro-2H-1,3,4-oxadiazin-2-one]
- IC50 (NCIH1563 cells): 46 nM
- IC50 (TE4 cells): 41 nM

Reference: patent publication US11427553B2, “Dihydrooxadiazinones” (Bayer Aktiengesellschaft, priority 2017, dated 2022)
